Data on two compounds can be found in US20240041796A1, “ANTI-INFLAMMATORY COMPOSITION COMPRISING N-BENZYL-N-METHYLDECAN-1-AMINE OR A DERIVATIVE THEREOF AS AN ACTIVE INGREDIENT” (PUSAN NATIONAL UNIVERSITY INDUSTRY-UNIVERSITY COOPERATION …, priority 2022, published 2024).

The test system of one test is THP-1 cell line. The test is described as follows: LPS-induced signaling pathway in THP-1 cells pretreated with FMJ-G0 derivatives. Format: cell-based, human. To be noted: pretreated 4 μM 1 hour, LPS 1 μg/mL 4 hours; FIG. 8B. The procedure: Thereafter, the THP-1 cell line was pretreated with the synthesized FMJ-G0 derivatives FMJ-G1, FMJ-G2, and FMJ-G3 at a concentration of 4 μM for 1 hour. Lipopolysaccharide (1 μg/mL) was added to a culture medium in which the THP-1 cell line was cultured for 4 hours. The same cell line was collected, and a signaling pathway involved in inflammatory cytokine synthesis was identified, and the result is shown in FIG. 8B.

The subject of a further test is Balb/C mice. Nature of the test: DNCB-induced atopic dermatitis model, cosmetic cream applied to the skin. Format: in vivo, mouse. The note with it: for DNCB-induced atopic dermatitis (level of dermatitis): cosmetic cream (0.3% active; Lidomax ointment 0.15%) applied to the back for 2 weeks, FIG. 9A, 9C. The procedure:
Wed added 0.3 g of olive wax to 2 mL of soybean oil (Sigma-Aldrich) in a glass tube (15 ml), and put the tube in a 75° C. water-bath, and performed a double boiling thereon to melt the olive wax for 30 minutes while vortexing the tube at 10 minute interval. Under the same conditions, 7.7 ml of purified water was put into a 75° C. water-bath and heated the same for 30 minutes. Next, 7.5 ml of purified water was poured into the tube containing the olive wax and the mixture was stirred well via vortexing. Then, […] (0.3%) of each of BMDA and derivatives thereof (FMJ-G0, FMJ-G4, FMJ-G1, FMJ-G2, FMJ-G3) as synthesized in Examples 1 and 3 were added to the mixture, followed by stirring. The reaction product was cooled in ice and prepared in the form of a cosmetic cream.
In order to induce atopic dermatitis using 5-week-old Balb/C mice, hair on the back of the mouse was removed therefrom, and after one day, a 0.5% solution in which DNCB (2,4-dinitrochlorobenzne) is mixed with acetone and olive oil (3:1) was prepared, and then was applied thereon for 3 consecutive days by 150 μL per each day. Thereafter, the solution of the same concentration was applied to the back area from which the hair was removed twice a week and this process continued for 2 weeks. Further, to alleviate atopic dermatitis induced in this way, the cosmetic cream containing each of BMDA (FMJ-G0) and the derivatives thereof (FMJ-G4, FMJ-G1, FMJ-G2, FMJ-G3) of the present disclosure as prepared above was applied to the back of rats with the induced atopic dermatitis for 2 weeks, and then, changes in skin inflammation were examined.
The experimental results of FIG. 10A and FIG. 10B was obtained as follows as in FIG. 9. The skin tissue was removed from the back of the mouse in the group, and was placed fixedly in 10% formaldehyde for 48 hours, and paraffin pieces were made, and the pieces were thinly sliced so as to have a thickness of 4 μm and was subjected to hematoxylin-esoin staining. Then, whether the damaged skin tissue was recovered by each of BMDA (FMJ-G0) and DMMA (FMJ-G4) was examined using an optical microscope equipped with a Leica application (Leica Microsystems, Switzerland).
To this end, the atopic dermatitis is induced in FIG. 9, and on 2 weeks since the treatment with BMDA (FMJ-G0) and DMMA (FMJ-G4), blood (500 ul) is collected from the hepatic veins of the rats of the above groups, and left at room temperature for 30 minutes. Then, serum was separated and prepared via centrifugation, and then, the IgE concentration related to the allergic reaction was measured through ELISA using the serum thus prepared.
Anti-mouse IgE (Pharmingen, CA, USA) was diluted with PBS (pH 7.4) on a 96-well plate, 100 μL thereof was coated on each 96-well plate, and then left at 4° C. for 12 hours. The plate was washed with PBS containing 0.05% tween. Blocking was performed thereon for 1 hour with PBS containing 1% BSA, 5% sucrose, and 0.05% NaN3. Washing was performed thereon several times using washing buffer. Recombinant IgE and serum were added thereto, and reaction occurred at 37° C. for 2 hours, and each well was washed again, and biotinylated IgE (Pharmingen, CA, USA) was added thereto. Reaction occurred for 2 hours. After washing the well, avidin peroxidase was added thereto and reaction occurred at 37° C. for 30 minutes. Then, the well was washed and then, ABTS solution as a substrate was added thereto. Absorbance was measured at 405 nm using ELISA reader (Epoch2, Biotek, VT, USA).
FIG. 11 show data obtained as follows. The atopic dermatitis was induced as described in FIG. 9, and on 2 weeks since the treatment with BMDA or DMMA (FMJ-G0/G4), a portion of the skin tissue of the rats in the groups were put in Trisol solution and the tissue was crushed in a sonicator. […]

[1] abbreviates: cosmetic cream (Lidomax ointment 0.15%) applied for 2 weeks, FIG. 9B, 9D.

Molecules are shown by their SMILES.

Consider `CCCCCCCCCCCCN(C)Cc1ccccc1` [FMJ-G2, benzyl-dodecyl-methyl-amine], for which, in the test on THP-1 cell line, the “phosphorylation of JNK resulting from LPS” value is listed as “inhibited”, the “phosphorylation of MK2 resulting from LPS” value is recorded as “inhibited” and the “phosphorylation of p38 MAP kinase resulting from LPS” value is on record as “inhibited”. Besides, the “DNCB-induced atopic dermatitis (level of dermatitis)” value with Balb/C mice is “did not prevent”. In addition, in the test on Balb/C mice (setting [1]), the “size of the (inguinal) lymph node” value was “increased” and the “size of the spleen” value is reported as “increased”.

`CCCCCCCCCCN(CC)Cc1ccccc1` [FMJ-G1, Benzyl-decyl-ethyl-amine]: in the test with THP-1 cell line, the “phosphorylation of JNK resulting from LPS” value is reported as “inhibited”, the “phosphorylation of MK2 resulting from LPS” value is reported as “inhibited” and the “phosphorylation of p38 MAP kinase resulting from LPS” value is on record as “inhibited”. The “DNCB-induced atopic dermatitis (level of dermatitis)” value in the test with Balb/C mice was “significantly alleviates”.
